Assay results taken from PubChem BioAssay AID1259407 (Chemical Carcinogenesis Research Information System (CCRIS), 2018).
Calls of active or inactive are those of the source. No rule for the calls is given here.

Tested on: CCRIS mutagenicity, Ames/micronucleus/aberration tests
Assay: CCRIS mutagenicity studies
Settings: Test System: AMES SALMONELLA TYPHIMURIUM

Measured: mutagenic call

O=C(O)CN(CCN(CC(=O)O)CC(=O)O)CC(=O)O
inactive: Strain/Indicator: TA97, Metabolic Activation: HAMSTER, LIVER, S-9, AROCLOR 1254 (10%), Method: PREINCUBATION inactive; negative | Strain/Indicator: TA97, Metabolic Activation: HAMSTER, LIVER, S-9, AROCLOR 1254 (30%), Method: PREINCUBATION inactive; negative | Strain/Indicator: TA97, Metabolic Activation: NONE, Method: PREINCUBATION inactive; negative | Strain/Indicator: TA97, Metabolic Activation: RAT, LIVER, S-9, AROCLOR 1254 (10%), Method: PREINCUBATION inactive; negative | Strain/Indicator: TA97, Metabolic Activation: RAT, LIVER, S-9, AROCLOR 1254 (30%), Method: PREINCUBATION inactive; negative | Strain/Indicator: TA97, Metabolic Activation: S-9, Method: PREINCUBATION inactive; negative | Strain/Indicator: TA98, Metabolic Activation: HAMSTER, LIVER, S-9, AROCLOR 1254 (10%), Method: PREINCUBATION inactive; negative | Strain/Indicator: TA98, Metabolic Activation: HAMSTER, LIVER, S-9, AROCLOR 1254 (30%), Method: PREINCUBATION inactive; negative | Strain/Indicator: TA98, Metabolic Activation: HAMSTER, LIVER, S-9, AROCLOR 1254, Method: STANDARD PLATE inactive; negative | Strain/Indicator: TA98, Metabolic Activation: NONE, Method: PREINCUBATION inactive; negative | Strain/Indicator: TA98, Metabolic Activation: NONE, Method: STANDARD PLATE inactive; negative | Strain/Indicator: TA98, Metabolic Activation: RAT LIVER S-9, PHENOBARBITAL AND BETA-NAPHTHOFLAVONE, Method: PREINCUBATION inactive; negative | Strain/Indicator: TA98, Metabolic Activation: RAT, LIVER, S-9, AROCLOR 1254 (10%), Method: PREINCUBATION inactive; negative | Strain/Indicator: TA98, Metabolic Activation: RAT, LIVER, S-9, AROCLOR 1254 (30%), Method: PREINCUBATION inactive; negative | Strain/Indicator: TA98, Metabolic Activation: RAT, LIVER, S-9, AROCLOR 1254, Method: STANDARD PLATE inactive; negative | Strain/Indicator: TA100, Metabolic Activation: HAMSTER, LIVER, S-9, AROCLOR 1254 (10%), Method: PREINCUBATION inactive; negative | Strain/Indicator: TA100, Metabolic Activation: HAMSTER, LIVER, S-9, AROCLOR 1254 (30%), Method: PREINCUBATION inactive; negative | Strain/Indicator: TA100, Metabolic Activation: HAMSTER, LIVER, S-9, AROCLOR 1254, Method: STANDARD PLATE inactive; negative | Strain/Indicator: TA100, Metabolic Activation: NONE, Method: PREINCUBATION inactive; negative | Strain/Indicator: TA100, Metabolic Activation: NONE, Method: STANDARD PLATE inactive; negative | Strain/Indicator: TA100, Metabolic Activation: RAT LIVER S-9, PHENOBARBITAL AND BETA-NAPHTHOFLAVONE, Method: PREINCUBATION inactive; negative | Strain/Indicator: TA100, Metabolic Activation: RAT, LIVER, S-9, AROCLOR 1254 (10%), Method: PREINCUBATION inactive; negative | Strain/Indicator: TA100, Metabolic Activation: RAT, LIVER, S-9, AROCLOR 1254 (30%), Method: PREINCUBATION inactive; negative | Strain/Indicator: TA100, Metabolic Activation: RAT, LIVER, S-9, AROCLOR 1254, Method: STANDARD PLATE inactive; negative | Strain/Indicator: TA102, Metabolic Activation: NONE, Method: PREINCUBATION inactive; negative | Strain/Indicator: TA102, Metabolic Activation: RAT LIVER S-9, PHENOBARBITAL AND BETA-NAPHTHOFLAVONE, Method: PREINCUBATION inactive; negative | Strain/Indicator: TA102, Metabolic Activation: S-9, Method: PREINCUBATION inactive; negative | Strain/Indicator: TA104, Metabolic Activation: NONE, Method: PREINCUBATION inactive; negative | Strain/Indicator: TA104, Metabolic Activation: RAT LIVER S-9, PHENOBARBITAL AND BETA-NAPHTHOFLAVONE, Method: PREINCUBATION inactive; negative | Strain/Indicator: TA1535, Metabolic Activation: HAMSTER, LIVER, S-9, AROCLOR 1254 (10%), Method: PREINCUBATION inactive; negative
